Marks after values point to notes of the source that are not given here.
Legend:
Assay type in all cases: cell-based
[1] = system: normal human preadipocytes; test: Differentiation of normal human preadipocytes in depleted differentiation medium (Bodipy lipid droplet labeling, image analysis); settings: 15 days
Protocol: Normal human preadipocytes resulting from abdominal surgical waste from a donor were cultured in monolayer until confluence in the presence of a culture medium comprising PBM-2 (Preadipocyte Basal Medium-2) supplied by the company Lonza, an amount of 10% by volume of FBS (Fetal Bovine Serum) for 100% of the volume of the culture medium, L-glutamine and gentamicin.
Their differentiation into adipocytes was induced by adding a “depleted” differentiation medium comprising a mixture of insulin, dexamethasone, IBMX (isobutyl methyl xanthine) and indomethacin, and used at a dilution rate of 1/10th with respect to a “standard” differentiation medium.
A differentiation phase is also carried out on human preadipocytes as described above and cultured in monolayers as described above, but in the presence of a “standard” differentiation medium, namely a nondiluted mixture of insulin, dexamethasone, IBMX (IsoButyl Methyl Xanthine) and indomethacin, so as to obtain a “control differentiated in standard medium”.
Once the maturity of the preadipocytes was reached, namely after 15 days following the induction described above, the cultures were rinsed with a PBS (Phosphate Buffered Saline) buffer and the intracytoplasmic lipid vesicles were labeled using a specific viable fluorescent probe, Bodipy (500 μg/ml). The nuclei of the differentiated preadipocytes were also labeled using a Hoechst reagent (bisbenzimide), which is also fluorescent, at a concentration of 2 μg/ml, sold by the company Sigma.
Three photographs per well were taken using a Zeiss Axiovert™ 25 inverted epifluorescence microscope fitted with an ×20 objective.
For each test of products tested, including controls, the images obtained with the inverted epifluorescence microscope are analyzed using the Lucia software, allowing quantification of the Bodipy fluorescent label, in order to carry out: • a measurement of the lipid droplet surface area (Sd), • a measurement of the number of differentiated cells (Nc), and • a measurement of the number of total cell nuclei (Nnc).
For each test, the level of adipocyte differentiation (D) is then calculated by relating the lipid droplet surface area to the number of total nuclei according to the following formula: (D)=(lipid droplet surface area)/(number of total cell nuclei).
The following will thus be calculated: • the level of adipocyte differentiation of the control differentiated in depleted medium (subsequently denoted Ddm); • the level of adipocyte differentiation of the control differentiated in standard or complete medium (subsequently denoted Dcm); • the level of adipocyte differentiation of the products tested (N-hexadecanoyl isoleucine, hexadecanoic acid, isoleucine, hexadecanoic acid/isoleucine mixture in a ratio by weight of 65/35) (subsequently denoted Dpt).
For each product tested, the following are then calculated:
a) the percentage restoration of adipocyte differentiation (subsequently denoted RAD) according to the following formula: RAD=[(Dpt−Ddm)/(Dcm−Ddm)]×100
b) the adipocyte surface area (AS) according to the following formula: (AS)=[(lipid droplet surface area Sd)/(number of differentiated cells Nc)]×100
c) the percentage increase in adipocyte surface area (subsequently denoted IAS) relative to the control treated with depleted medium according to the formula: IAS=[adipocyte surface area of the product (ASpt)/adipocyte surface area of the control treated with the depleted medium (ASdm)]×100.
A statistical analysis is then carried out on the data (D) and (AS) using a two-sided Student's test assuming unequal variances. Thus, the population of each of the experimental conditions tested for the parameters (D) and (AS) is compared with the population of the condition of differentiation in the presence of the depleted differentiation medium. An error threshold (p) is set at 5%.

[2] = system: human preadipocytes of passage R7; test: Adipocyte phenotype restoration in artificially aged (passage R7) preadipocytes, protocol 3; settings: protocol 3: product present during culture and differentiation; 10 μg/ml on a dry extract basis
Description: (§1) The term “passage” or “subculturing” or “amplification” denotes here the operation, known to those skilled in the art, consisting in amplifying the cells in question successively by means of culture cycles. Thus, the term “preadipocytes of passage RO” denotes the preadipocytes which have undergone no passage operation as defined above. The term “preadipocytes of passage R1” denotes the preadipocytes which have undergone a single passage operation as defined above. The term “preadipocytes of passage R7” denotes the preadipocytes which have undergone 7 successive passage operations under identical operating conditions.
(§2) • i) Human preadipocytes of passage R1 were cultured in monolayer for 5 days until confluence. […]
The effect of the N-hexadecanoyl isoleucine on human preadipocytes of passage R7 is evaluated according to a variant of the procedure of protocol 2, the first step of which consists in culturing the human preadipocytes of passage R7 in a monolayer for 5 days until confluence in the presence of N-hexadecanoyl isoleucine. […]

[3] = system: human preadipocytes of passage R7; test: Adipocyte phenotype restoration in artificially aged (passage R7) preadipocytes, protocol 2; settings: protocol 2: product present during 5-day culture until confluence; 10 μg/ml on a dry extract basis
Description: as §1, §2
The steps of sections a) and b) of protocol 1 are carried out using human preadipocytes of passage R1 and human preadipocytes of passage R7 so as to obtain a “young” control and an “aged” control and the associated optical densities ODR1 and ODR7. The effect of the N-hexadecanoyl isoleucine on human preadipocytes of passage R7 is evaluated according to a variant of the procedure of protocol 1, the first step of which consists in culturing the human preadipocytes of passage R7 in a monolayer for 5 days until confluence in the presence of N-hexadecanoyl isoleucine. […]

[4] = system: human preadipocytes of passage R7; test: Adipocyte phenotype restoration in artificially aged (passage R7) preadipocytes, protocol 1 (Oil-Red-O, OD 540 nm); settings: protocol 1: product present during differentiation; 10 μg/ml on a dry extract basis
Description: as §1, §2
The optical density thus measured for the young control is denoted “ODR1”. […]

[5] = 1.7 μg/ml on a dry extract basis

SMILES | IAS (percentage increase in adipocyte surface area relative to control in depleted medium = 100%) ([1]; 3.3 μg/ml) | RAD (percentage restoration of adipocyte differentiation) ([1]; 3.3 μg/ml) | IAS (percentage increase in adipocyte surface area relative to control in depleted medium = 100%) ([1]; 6.5 μg/ml) | RAD (percentage restoration of adipocyte differentiation) ([1]; 6.5 μg/ml) | IAS (percentage increase in adipocyte surface area relative to control in depleted medium = 100%) [1, 5] | RAD (percentage restoration of adipocyte differentiation) [1, 5] | PRR (phenotype restoration rate) [2] | PRR (phenotype restoration rate) [3] | PRR (phenotype restoration rate) [4]
CCCCCCCCCCCCCCCC(=O)O [Hexadecanoic acid, hexadecanoic acid] | 41%* | <10% | 62% | <10% |  |  |  |  | 
CC[C@H](C)[C@H](N)C(=O)O [Isoleucine, isoleucine] | 117% | <10% |  |  | 57% | <10% |  |  | 
CCCCCCCCCCCCCCCC(=O)N[C@H](C(=O)O)[C@@H](C)CC [N-hexadecanoyl isoleucine] |  |  |  |  |  |  | 30%* | 17%* | 16%*

Reference: patent US9687431B2, “Use of isoleucine N-hexadecanoyl as a “volumizing” and/or “plumping” agent for human skin” (SOCIETE D'EXPLOITATION DE PRODUITS POUR LES INDUSTRIES …, priority 2009, dated 2017)
